Consider 15 molecules from patent US8168668B2, “Compounds” (AstraZeneca AB, priority 2005, dated 2012).

The target of data set [1] is T1, hVR1 (Homo sapiens, UniProt Q8NER1).
T1 construct: expressed in transfected cells
The data set can be described thus: hVR1 FLIPR (Fluorometric Image Plate Reader) screening assay. The format is cell-based. Particulars: inhibition of capsaicin-induced intracellular calcium increase. The procedure:
1. hVR1 FLIPR (Fluorometric Image Plate Reader) Screening Assay
Transfected CHO cells, stably expessing hVR1 (15,000 cells/well) are seeded in 50 ul media in a black clear bottom 384 plate (Greiner) and grown in a humidified incubator (37° C., 2% CO2), 24-30 hours prior to experiment.
Subsequently, the media is removed from the cell plate by inversion and 2 μM Fluo-4 is added using a multidrop (Labsystems). Following the 40 minutes dye incubation in the dark at 37° C. and 2% CO2, the extracellular dye present is washed away using an EMBLA (Scatron), leaving the cells in 40 ul of assay buffer (1×HBSS, 10 mM D-Glucose, 1 mM CaCl2, 10 mM HEPES, 10×7.5% NaHCO3 and 2.5 mM Probenecid).
FLIPR Assay—IC50 Determination Protocol
For IC50 determinations the fluorescence is read using FLIPR filter 1 (em […]). A is cellular baseline recording is taken for 30 seconds, followed by a 20 μl addition of 10, titrated half-log concentrations of the test compound, yielding cellular concentration ranging from 3 μM to 0.1 nM. Data is collected every 2 seconds for a further 5 minutes prior to the addition of a VR1 agonist solution: 20-50 nM solution of capsaicin by the FLIPR pipettor. The FLIPR continues to collect data for a further 4 minutes. Compounds having antagonistic properties against the hVR1 will inhibit the increase in intracellular calcium in response to the capsaicin addition. This consequently leading to a reduction in fluorescence signal and providing a reduced fluorescence reading, compared with no compound, buffer controls. Data is exported by the FLIPR program as a sum of fluorescence calculated under the curve upon the addition of capsaicin. Maximum inhibition, Hill slope and IC50 data for each compound are generated. […]
(In general: A change in cytosolic calcium serves as a functional read-out for many receptors and channels.)

Data set [2] concerns carrageenan-induced heat hyperalgesia. Nature of the data set: Carrageenan model, heat plantar test (paw withdrawal latency). In kind it is in vivo. Particulars: rat, orally administered; for pEC50 / ED50: po; for pEC50 / ED50 / EC80: tested at Tmax; for Extrapolated Emax: non-linear regression; for Emax observed: reversal of heat hyperalgesia.
Data set [3] relates to FCA-induced heat hyperalgesia. Nature of the data set: Freund's Complete Adjuvant (FCA) model, heat plantar test (paw withdrawal latency). The format is in vivo. Particulars: rat, orally administered.
A short description of data set [4]: aqueous solubility test. The format is physicochemical. Particulars: aqueous medium, pH 7.4, aqueous buffer.

Each structure is given as a SMILES string. pEC50, pIC50: −log10 of the molar value. In brackets after ≈: the same amount, converted by molar mass.

T1 sequence (Q8NER1 whole entry): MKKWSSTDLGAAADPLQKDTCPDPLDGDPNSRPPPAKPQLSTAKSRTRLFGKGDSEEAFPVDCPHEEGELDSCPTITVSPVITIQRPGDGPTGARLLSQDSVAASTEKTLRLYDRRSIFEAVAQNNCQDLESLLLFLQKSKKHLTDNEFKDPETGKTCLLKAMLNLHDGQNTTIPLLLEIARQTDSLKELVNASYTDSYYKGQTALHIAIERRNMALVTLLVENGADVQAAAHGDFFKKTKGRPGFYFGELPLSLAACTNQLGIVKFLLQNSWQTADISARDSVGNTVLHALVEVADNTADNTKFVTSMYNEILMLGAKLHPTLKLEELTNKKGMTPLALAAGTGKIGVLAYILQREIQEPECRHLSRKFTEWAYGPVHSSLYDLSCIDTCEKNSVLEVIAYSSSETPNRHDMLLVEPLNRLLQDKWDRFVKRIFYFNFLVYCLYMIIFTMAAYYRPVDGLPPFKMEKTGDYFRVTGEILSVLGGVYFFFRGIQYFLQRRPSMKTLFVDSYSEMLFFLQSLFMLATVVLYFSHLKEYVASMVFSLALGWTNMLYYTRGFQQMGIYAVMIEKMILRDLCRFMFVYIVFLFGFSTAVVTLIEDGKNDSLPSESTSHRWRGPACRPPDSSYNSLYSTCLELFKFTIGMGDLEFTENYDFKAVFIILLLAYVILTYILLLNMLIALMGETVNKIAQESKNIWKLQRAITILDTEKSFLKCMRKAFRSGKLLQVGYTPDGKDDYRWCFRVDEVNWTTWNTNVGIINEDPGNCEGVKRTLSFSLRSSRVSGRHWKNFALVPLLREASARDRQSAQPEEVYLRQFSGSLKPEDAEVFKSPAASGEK

In general, pIC50 refers to the IC50 on a negative log10 scale, so that one unit is a factor of ten. For the molecule `CO[C@@H](C)COc1ccc(C(C)NC(=O)Cn2cnc3cccc([N+](=O)[O-])c32)cc1C(F)(F)F` (stereo partly drawn) [Example 47, N-{1-[4-{[(2S)-2-Methoxypropyl]oxy}-3-(trifluoromethyl)phenyl]ethyl}-2-(7-nitro-1H-benzimidazol-1-yl)acetamide], the pIC50 in data set [1] is 8.10.
On to `CC(NC(=O)Cn1cnc2cccc([N+](=O)[O-])c21)c1ccc(C(F)(F)F)cc1` (stereo not shown) [Example 37, 2-(7-nitro-1H-benzimidazol-1-yl)-N-{1-[4-(trifluoromethyl)phenyl]ethyl}acetamide], for which, in data set [1], the negative-log IC50 (pIC50) was 8.22.
As to `CC(NC(=O)Cn1cnc2cccc([N+](=O)[O-])c21)c1ccc(OC2CCCC2)nc1` (stereo not shown) [Example 12, N-{1-[6-(cyclopentyloxy)pyridine-3-yl]ethyl}-2-(7-nitro-1H-benzimidazol-1-yl)acetamide], the pIC50 in data set [1] is 8.30.
For `CC(NC(=O)Cn1cnc2cccc([N+](=O)[O-])c21)c1ccc(C(F)(F)Cl)cc1` (stereo not shown) [Example 16, N-(1-{4-[chloro(difluoro)methyl]phenyl}ethyl)-2-(7-nitro-1H-benzimidazol-1-yl)acetamide], the pIC50 in data set [1] is 8.00.
Turning to `CC[C@H](C)Oc1ccc([C@H](C)NC(=O)Cn2cnc3cccc([N+](=O)[O-])c32)cc1` [Example 15, N-[(1S)-1-(4-{[(1S)-1-methylpropyl]oxy}phenyl)ethyl]-2-(7-nitro-1H-benzimidazol-1-yl)acetamide], the negative-log IC50 (pIC50) in data set [1] is 9.00.
For the molecule `CC(NC(=O)Cn1cnc2cccc([N+](=O)[O-])c21)c1ccc(C2CC2)cc1` (stereo not shown) [Example 40, N-[1-(4-cyclopropylphenyl)ethyl]-2-(7-nitro-1H-benzimidazol-1-yl)acetamide], in data set [1], the negative-log IC50 (pIC50) is 8.52.
In the case of `C#CC(C)Oc1ccc([C@H](C)NC(=O)Cn2cnc3cccc([N+](=O)[O-])c32)cc1` (stereo partly drawn) [Example 4, N-((1S)-1-{4-[(1-methylprop-2-yn-1-yl)oxy]phenyl}ethyl)-2-(7-nitro-1H-benzimidazol-1-yl)acetamide], the negative-log IC50 (pIC50) in data set [1] was 8.52.
A word on the pEC50: it is −log10 of the EC50, conventionally taken in molar units. Usually ED50 stands for the dose that gives a 50% effect, or the effect in half of the subjects. For orientation: EC80 means the concentration needed for an effect of 80%. For the molecule `C[C@H](NC(=O)Cn1cnc2cccc([N+](=O)[O-])c21)c1ccc(OC(CF)CF)cc1` [Example 2, N-((1S)-1-{4-[2-fluoro-1-(fluoromethyl)ethoxy]phenyl}ethyl)-2-(7-nitro-1H-benzimidazol-1-yl)acetamide], in data set [2], the pEC50 was 6.98, it took a dose of 1.3 µmol/kg to reach the 50% effect level (ED50), the “Extrapolated Emax” value is given as 79% and the Emax observed is 79%. Besides, the 80% effect concentration (EC80) in data set [2] is 170 nM.
`C[C@H](NC(=O)Cn1cnc2ccc(F)c(F)c21)c1ccc(C(C)(C)C)cc1` [Example 52, N-[(1S)-1-(4-tert-butylphenyl)ethyl]-2-(6,7-difluoro-1H-benzimidazol-1-yl)acetamide]: in data set [2], the pEC50 is 6.30, the 50% effect level (ED50) was put at a dose of 37.4 µmol/kg, the “Extrapolated Emax” value was over 100% and the Emax observed turned out to be 74%. In addition, the EC80 in data set [2] worked out at 1400 nM. For the same molecule, in data set [3] (po, tested at Tmax), the pEC50 is 5.80 and the ED50 worked out at 120 µmol/kg. In addition, the “Extrapolated Emax” value in data set [3] (non-linear regression) is given as over 100%. For the same molecule, the Emax observed in data set [3] (reversal of heat hyperalgesia) came to 78%. For the same molecule, the EC80 in data set [3] (tested at Tmax) came out at 4600 nM.
As for `CC(COc1cccc(C(F)(F)F)c1)NC(=O)Cn1cnc2cccc([N+](=O)[O-])c21` (stereo not shown) [Example 48, N-{1-methyl-2-[3-(trifluoromethyl)phenoxy]ethyl}-2-(7-nitro-1H-benzimidazol-1-yl)acetamide], in data set [1], the pIC50 is 8.15.
As for `CC(C)Oc1ccc([C@H](C)NC(=O)Cn2cnc3cccc([N+](=O)[O-])c32)cc1` [Example 1, N-[(1S)-1-(4-isopropoxyphenyl)ethyl]-2-(7-nitro-1H-benzimidazol-1-yl)acetamide], the pIC50 in data set [1] is 9.00.
Same read-out and setting: to `CC(NC(=O)Cn1cnc2cccc([N+](=O)[O-])c21)c1ccc(OC(F)(F)F)cc1` (stereo not shown) [Example 36, 2-(7-nitro-1H-benzimidazol-1-yl)-N-{1-[4-(trifluoromethoxy)phenyl]ethyl}acetamide] belongs 8.05; to `CC(NC(=O)Cn1cnc2cccc([N+](=O)[O-])c21)c1ccc(OC(F)(F)C(F)F)cc1` (stereo not shown) [Example 22, 2-(7-nitro-1H-benzimidazol-1-yl)-N-{1-[4-(1,1,2,2-tetrafluoroethoxy)phenyl]ethyl}acetamide], 8.30.
The term solubility denotes the dissolved amount per volume that the medium holds. Higher therefore signals much dissolved substance. Consider `CC(C)Oc1ccc(C(C)NC(=O)Cn2cnc3cccc([N+](=O)[O-])c32)cn1` (stereo not shown) [Example 38, N-[1-(6-isopropoxypyridin-3-yl)ethyl]-2-(7-nitro-1H-benzimidazol-1-yl)acetamide], for which the concentration in solution in data set [4] (solubility) came to 86 µM (≈ 33 µg/mL).
For `CC(NC(=O)Cn1cnc2cccc([N+](=O)[O-])c21)c1ccc(OC2CCCC2)c(F)c1` (stereo not shown) [Example 39, N-{1-[4-(cyclopentyloxy)-3-fluorophenyl]ethyl}-2-(7-nitro-1H-benzimidazol-1-yl)acetamide], the negative logarithm of the IC50 (pIC50) in data set [1] was 9.00.
